Key:
human M3 receptor = human M3 receptor (Homo sapiens, UniProt P20309); assay: reversibility at the human M3 receptor in vitro; format: binding
[1] = test system: healthy volunteers and COPD patients; assay: clinical pharmacology studies, single inhaled doses, plethysmography (sGaw, Raw) and spirometry (FEV1); format: in vivo, human
Protocol: Several clinical pharmacology studies have been conducted using 4-[hydroxy(diphenyl)methyl]-1-{2-[(phenylmethyl)oxy]ethyl}-1-azoniabicyclo[2.2.2]octane bromide in both healthy volunteers and COPD patients to investigate the safety, tolerability, pharmacokinetics and pharmacodynamics of this compound. The bronchodilatory effects and duration of action of single inhaled doses of this compound as measured by plethysmography (sGaw, Raw) and spirometry (FEV1) were assessed in some of the above noted studies.

subjects with COPD [2] = assay: 28 day once-daily dry powder inhaler study in subjects with COPD; format: in vivo, human; details: 125, 250 and 500 mcg once-daily, 28 day period
Source text: A further study evaluated the efficacy and safety of three doses (125 mcg, 250 mcg and 500 mcg) of 4-[hydroxy(diphenyl)methyl]-1-{2-[(phenylmethyl)oxy]ethyl}-1-azoniabicyclo[2.2.2]octane bromide administered once-daily via a dry powder inhaler over a 28 day period in subjects with COPD.

[3] = test system: healthy Japanese volunteers; assay: single inhaled dose four-way crossover study, monotherapies and combination; format: in vivo, human; details: single inhaled doses, 500 mcg and/or 50 mcg
Source text: A combination of 4-[hydroxy(diphenyl)methyl]-1-{2-[(phenylmethyl)oxy]ethyl}-1-azoniabicyclo[2.2.2]octane bromide and the compound of formula (II) as the triphenylacetate salt has been administered to sixteen healthy Japanese volunteers, aged 20 to 65, as part of a clinical trial to assess the safety, tolerability, pharmacokinetics and pharmacodynamics of single inhaled doses of 4-[hydroxy(diphenyl)methyl]-1-{2-[(phenylmethyl)oxy]ethyl}-1-azoniabicyclo[2.2.2]octane bromide and the compound of formula (II) triphenylacetate as monotherapies and in combination. […]
This clinical study in healthy Japanese volunteers, evaluated the effect of 4-[hydroxy(diphenyl)methyl]-1-{2-[(phenylmethyl)oxy]ethyl}-1-azoniabicyclo[2.2.2]octane bromide (500 mcg dose) and the compound of formula (II) triphenylacetate (50 mcg dose) administered as single inhaled doses and concurrently (4-[hydroxy(diphenyl)methyl]-1-{2-[(phenylmethyl)oxy]ethyl}-1-azoniabicyclo[2.2.2]octane bromide (500 mcg dose) and the compound of formula (II) triphenylacetate (50 mcg dose)) on lung function parameters. […] In this study FEV1 values were recorded. […]

pre-clinical models = assay: duration of action in vivo, administered directly to the lungs in pre-clinical models; design: species or system animals
subjects with COPD [4] = assay: 14-day once-daily study in subjects with COPD; format: in vivo, human; details: 14-day treatment period
Source text: In addition, this study confirmed that 4-[hydroxy(diphenyl)methyl]-1-{2-[(phenylmethyl)oxy]ethyl}-1-azoniabicyclo[2.2.2]octane bromide has a once-daily profile.

muscarinic receptor = muscarinic receptor antagonism, studies in animal models and in humans
[5] = test system: subjects with persistent uncontrolled asthma; assay: 8 week randomised, double-blind, placebo-controlled study in persistent uncontrolled asthma; format: in vivo, human
Protocol: In one such study, the safety and efficacy of four doses of 6α,9α-difluoro-17α-[(2-furanylcarbonyl)oxy]-11β-hydroxy-16α-methyl-3-oxo-androsta-1,4-diene-17β-carbothioic acid S-fluoromethyl ester (fluticasone furoate) in subjects with persistent uncontrolled asthma were evaluated. In this study, which was a randomised, double-blind, placebo-controlled, parallel group study, 598 patients received one of six treatments: fluticasone furoate (25, 50, 100 or 200 mcg) once daily, fluticasone propionate 100 mcg twice daily or placebo for 8 weeks. The primary endpoint was change from baseline in trough (pre-dose) forced expiratory volume in 1 second (FEV1) at Week 8. […] This study supports the use of fluticasone furoate (100 or 200 mcg once-daily) for the treatment of persistant uncontrolled asthma.

[6] = format: in vivo, animal and human
asthmatic patients = assay: clinical pharmacology studies of the compound of formula (II) in asthmatic patients; format: in vivo, human; details: all doses tested
Source text: The compound of formula (II) as the α-phenylcinnamate salt and the triphenylacetate salt has been studied in a number of clinical pharmacology studies, including single- and repeat-dose studies. In addition, these studies have evaluated the compound of formula (II) formulated with lactose and either cellobiose octaacetate or magnesium stearate.

human M3 receptor, sequence (P20309 whole entry): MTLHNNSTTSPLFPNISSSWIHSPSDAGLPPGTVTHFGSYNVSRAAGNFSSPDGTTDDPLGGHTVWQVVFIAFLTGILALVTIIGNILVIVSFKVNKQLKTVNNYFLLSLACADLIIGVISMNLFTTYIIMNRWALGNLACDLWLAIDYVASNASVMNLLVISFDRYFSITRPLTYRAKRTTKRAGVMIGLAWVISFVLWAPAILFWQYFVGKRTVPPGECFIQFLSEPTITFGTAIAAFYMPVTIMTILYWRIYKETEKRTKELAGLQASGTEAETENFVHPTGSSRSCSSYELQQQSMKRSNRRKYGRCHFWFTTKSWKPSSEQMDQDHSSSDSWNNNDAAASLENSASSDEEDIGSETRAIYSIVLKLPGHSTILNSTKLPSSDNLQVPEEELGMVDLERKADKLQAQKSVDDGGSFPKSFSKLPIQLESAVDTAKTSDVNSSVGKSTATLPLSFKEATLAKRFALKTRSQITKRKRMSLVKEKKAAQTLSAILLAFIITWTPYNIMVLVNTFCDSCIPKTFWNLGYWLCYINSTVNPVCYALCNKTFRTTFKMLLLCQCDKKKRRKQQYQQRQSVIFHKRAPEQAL

In the case of `OC(c1ccccc1)(c1ccccc1)C12CC[N+](CCOCc3ccccc3)(CC1)CC2.[Br-]` [4-[hydroxy(diphenyl)methyl]-1-{2-[(phenylmethyl)oxy]ethyl}-1-azoniabicyclo[2.2.2]octane bromide], the “reversibility at the human M3 receptor” value (human M3 receptor) is reported as “slow reversibility”, the “bronchodilatory effects (sGaw, Raw, FEV1)” value [1] is reported as “clinically relevant bronchodilation” and the duration of action [1] is reported as 24 h. For the same compound, the bronchodilation (subjects with COPD [2]) was “significant bronchodilation over twenty four hours”, the safety (subjects with COPD [2]) was “safe” and the tolerability ([3]; dry powder inhalers) was “well tolerated”. The “FEV1 values compared with placebo” value [3] was “higher”, the “duration of action in vivo” value (pre-clinical models) was “long duration of action” and the “pulmonary function compared to placebo” value (subjects with COPD [4]; 62.5, 125, 250, 500 and 1000 mcg once-daily) was “statistically significant improvements”. The “trough FEV1 compared with open label tiotropium active control (18 mcg once-daily)” value (subjects with COPD [4]; all once-daily doses) was “numerically greater improvement” and the “muscarinic receptor antagonist profile” value (muscarinic receptor) was “long acting high-affinity pan-active muscarinic receptor antagonist”.

In the case of `C[C@@H]1C[C@H]2[C@@H]3C[C@H](F)C4=CC(=O)C=C[C@]4(C)[C@@]3(F)[C@@H](O)C[C@]2(C)[C@@]1(OC(=O)c1ccco1)C(=O)SCF` [fluticasone furoate, 6α,9α-difluoro-17α-[(2-furanylcarbonyl)oxy]-11β-hydroxy-16α-methyl-3-oxo-androsta-1,4-diene-17β-carbothioic acid S-fluoromethyl ester], the “change from baseline in trough FEV1 relative to placebo” value ([5]; 50-200 mcg once daily, Week 8, p<0.05) is reported as “significantly greater increases” and the “increase in trough FEV1 from baseline relative to placebo” value ([5]; 100 mcg and 200 mcg once daily, Week 8) is reported as over 200 mL.

In the case of `OCc1cc([C@@H](O)CNCCCCCCOCCOCc2c(Cl)cccc2Cl)ccc1O` [compound of formula (II), 4-{(1R)-2-[(6-{2-[(2,6-dichlorobenzyl)oxy]ethoxy}hexyl)amino]-1-hydroxyethyl}-2-(hydroxymethyl)phenol], the bronchodilation ([6]; animal and human studies) is reported as “sustained bronchodilation over a 24 hour period”, the safety profile ([6]; in vivo) is reported as “favourable safety profile” and the “trough (24-hour) FEV1 compared to placebo” value (asthmatic patients) is reported as “statistically and clinically significant improvement”.
